The results in this text go back to patent publication US20250271426A1, “REDUCTION OF BITTER TASTE OF ACTIVE PHARMACEUTICAL INGREDIENTS AND RELATED ASSAYS AND SCREENING METHODS” (Firmenich Incorporated, priority 2022, published 2025).

Holding throughout (assay): FLIPR calcium assay, cells with promiscuous G protein transfected with bitter receptor cDNA
What all share (format): cell-based
What all share (details): responsive if cellular response of >10% over baseline, Fluo4-AM

Experiment [1] has as its target T1, T2R receptor SEQ ID NO: 5 (S5) (Homo sapiens, UniProt P59534).
T1 construct: expressed in transfected cells; host or cells: cells expressing a promiscuous G protein (e.g., G16g44)
T1 sequence (P59534 18-338): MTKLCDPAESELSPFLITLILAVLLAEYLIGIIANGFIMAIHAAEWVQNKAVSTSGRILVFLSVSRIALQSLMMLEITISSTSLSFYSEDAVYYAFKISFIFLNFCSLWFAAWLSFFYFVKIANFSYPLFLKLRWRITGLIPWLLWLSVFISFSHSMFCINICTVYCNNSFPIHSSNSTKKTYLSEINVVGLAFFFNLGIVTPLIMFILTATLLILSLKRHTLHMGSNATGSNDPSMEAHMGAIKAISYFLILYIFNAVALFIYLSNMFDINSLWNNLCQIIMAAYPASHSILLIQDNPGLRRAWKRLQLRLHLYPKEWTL
The method, then: (§1) Cells expressing a promiscuous G protein (e.g., G16g44) were transfected with vectors encoding 22 functional bitter receptor cDNAs, with one receptor per transfection. The cells were transfected directly in 384-well format high-density plates and incubated for 28 hours. Later, cells were loaded with the Ca-specific dye Fluo4-AM. After an incubation of 60 minutes, excess dye is washed off, and cells are stimulated with respective bitter agonists while simultaneously recording changes in intracellular fluorescence using a FLIPR instrument.
(§2) The above protocol was carried out using 94 different active pharmaceutical ingredients (APIs) that span a wide range of different APIs having a diversity of chemical structures. A particular T2R receptor was identified as being responsive to a particular API if it triggered a cellular response of >10% over baseline.

Experiment [2] addresses T2, T2R receptor SEQ ID NO: 6 (S6) (Homo sapiens, UniProt P59540).
T2 construct: expressed in transfected cells; host or cells: cells expressing a promiscuous G protein (e.g., G16g44)
T2 sequence (P59540 1-309): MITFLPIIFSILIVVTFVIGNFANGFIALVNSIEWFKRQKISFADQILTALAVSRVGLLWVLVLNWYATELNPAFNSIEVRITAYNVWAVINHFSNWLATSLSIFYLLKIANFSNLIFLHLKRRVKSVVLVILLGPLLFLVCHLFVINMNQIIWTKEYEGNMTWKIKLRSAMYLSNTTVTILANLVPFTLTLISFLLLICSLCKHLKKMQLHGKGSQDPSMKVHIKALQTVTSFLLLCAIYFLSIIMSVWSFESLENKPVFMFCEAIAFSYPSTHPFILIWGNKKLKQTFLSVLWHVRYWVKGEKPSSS
The method, then:
as §1, §2

Experiment [3] addresses T3, T2R receptor SEQ ID NO: 3 (S3) (Homo sapiens, UniProt Q9NYW0, T156M).
T3 construct: expressed in transfected cells; host or cells: cells expressing a promiscuous G protein (e.g., G16g44)
T3 sequence (Q9NYW0 1-307 T156M): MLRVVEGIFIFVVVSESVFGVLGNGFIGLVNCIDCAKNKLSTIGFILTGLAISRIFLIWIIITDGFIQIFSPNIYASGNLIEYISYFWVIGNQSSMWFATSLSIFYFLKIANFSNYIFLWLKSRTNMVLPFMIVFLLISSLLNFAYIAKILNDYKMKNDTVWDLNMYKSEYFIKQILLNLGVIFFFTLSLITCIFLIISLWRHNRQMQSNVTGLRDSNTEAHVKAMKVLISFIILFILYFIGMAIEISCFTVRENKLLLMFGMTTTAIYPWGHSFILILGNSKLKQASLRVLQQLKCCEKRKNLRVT
The method, then:
as §1, §2

In experiment [4] the target is T4, T2R receptor SEQ ID NO: 1 (S1) (Homo sapiens, UniProt Q9NYW7).
T4 construct: expressed in transfected cells; host or cells: cells expressing a promiscuous G protein (e.g., G16g44)
T4 sequence (Q9NYW7 1-299): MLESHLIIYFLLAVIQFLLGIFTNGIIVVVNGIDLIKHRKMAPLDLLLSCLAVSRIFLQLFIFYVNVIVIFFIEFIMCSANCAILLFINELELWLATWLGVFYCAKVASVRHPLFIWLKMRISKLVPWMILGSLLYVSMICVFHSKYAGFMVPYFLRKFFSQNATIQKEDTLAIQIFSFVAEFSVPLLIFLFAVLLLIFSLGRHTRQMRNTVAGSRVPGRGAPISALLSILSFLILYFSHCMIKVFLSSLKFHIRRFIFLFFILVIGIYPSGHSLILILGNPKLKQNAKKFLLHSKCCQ
The method, then: as §1, §2

Experiment [5] concerns the target T5, T2R receptor SEQ ID NO: 4 (S4) (Homo sapiens, UniProt Q9NYV8).
T5 construct: expressed in transfected cells; host or cells: cells expressing a promiscuous G protein (e.g., G16g44)
T5 sequence (Q9NYV8 1-317): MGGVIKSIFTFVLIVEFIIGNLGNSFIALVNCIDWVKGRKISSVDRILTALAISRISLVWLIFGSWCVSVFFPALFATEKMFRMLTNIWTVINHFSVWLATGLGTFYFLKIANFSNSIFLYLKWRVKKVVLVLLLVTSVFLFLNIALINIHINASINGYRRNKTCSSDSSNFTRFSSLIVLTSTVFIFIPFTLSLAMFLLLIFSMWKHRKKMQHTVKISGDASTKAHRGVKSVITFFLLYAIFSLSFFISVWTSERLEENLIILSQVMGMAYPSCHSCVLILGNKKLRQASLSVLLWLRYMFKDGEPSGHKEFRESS
The method, then:
as §1, §2

In experiment [6] the target is T6, T2R receptor SEQ ID NO: 2 (S2) (Homo sapiens, UniProt Q9NYW2).
T6 construct: expressed in transfected cells; host or cells: cells expressing a promiscuous G protein (e.g., G16g44)
T6 sequence (Q9NYW2 1-309): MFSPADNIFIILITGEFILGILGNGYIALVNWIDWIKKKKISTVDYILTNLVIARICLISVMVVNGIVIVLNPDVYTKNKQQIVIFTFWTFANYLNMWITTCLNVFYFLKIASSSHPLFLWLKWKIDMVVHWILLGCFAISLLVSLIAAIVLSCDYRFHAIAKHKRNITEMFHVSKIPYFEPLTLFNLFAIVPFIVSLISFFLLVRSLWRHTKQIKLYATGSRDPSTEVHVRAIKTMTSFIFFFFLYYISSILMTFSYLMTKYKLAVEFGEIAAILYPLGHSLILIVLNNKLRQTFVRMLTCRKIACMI
The method, then: as §1, §2

In the case of `CC(C)(C)NC[C@H](O)COc1nsnc1N1CCOCC1` [Timolol], the “S5 positive response of T2R receptor to API” value (shortened to “S5 positive response”) in experiment [1] was “+ (a “+” to indicate whether a particular T2R receptor showed a positive response to a particular API)”. Further, in experiment [2], the “S6 positive response of T2R receptor to API” value (“S6 positive response” below) was “+ (a “+” to indicate whether a particular T2R receptor showed a positive response to a particular API)”. Besides, the “S3 positive response of T2R receptor to API” value (from here on “S3 positive response”) in experiment [3] was “+ (a “+” to indicate whether a particular T2R receptor showed a positive response to a particular API)”. For the same compound, the “S1 positive response of T2R receptor to API” value (shortened to “S1 positive response”) in experiment [4] was “+ (a “+” to indicate whether a particular T2R receptor showed a positive response to a particular API)”.

Consider `CN(C)CCC(c1ccc(Br)cc1)c1ccccn1` (stereo not drawn) [Brompheniramine], for which, in experiment [1], the “S5 positive response” value is on record as “+ (a “+” to indicate whether a particular T2R receptor showed a positive response to a particular API)”. For the same compound, the “S6 positive response” value in experiment [2] is reported as “+ (a “+” to indicate whether a particular T2R receptor showed a positive response to a particular API)”. Moreover, the “S4 positive response of T2R receptor to API” value (“S4 positive response” below) in experiment [5] was “+ (a “+” to indicate whether a particular T2R receptor showed a positive response to a particular API)”. Besides, the “S3 positive response” value in experiment [3] is “+ (a “+” to indicate whether a particular T2R receptor showed a positive response to a particular API)”. In experiment [4], the “S1 positive response” value was “+ (a “+” to indicate whether a particular T2R receptor showed a positive response to a particular API)”.

On to `CCn1cc(C(=O)O)c(=O)c2cc(F)c(N3CCNC(C)C3)c(F)c21` (stereo not drawn) [Lomefloxacin], for which the “S6 positive response” value in experiment [2] is given as “+ (a “+” to indicate whether a particular T2R receptor showed a positive response to a particular API)”. The “S2 positive response of T2R receptor to API” value in experiment [6] is on record as “+ (a “+” to indicate whether a particular T2R receptor showed a positive response to a particular API)”.

`CN(C)CCC(c1ccc(Cl)cc1)c1ccccn1` (stereo not drawn) [Chlorpheniramine]: the “S5 positive response” value in experiment [1] is listed as “+ (a “+” to indicate whether a particular T2R receptor showed a positive response to a particular API)”. In addition, the “S6 positive response” value in experiment [2] is “+ (a “+” to indicate whether a particular T2R receptor showed a positive response to a particular API)”. In experiment [5], the “S4 positive response” value is recorded as “+ (a “+” to indicate whether a particular T2R receptor showed a positive response to a particular API)”. In addition, in experiment [3], the “S3 positive response” value is “+ (a “+” to indicate whether a particular T2R receptor showed a positive response to a particular API)”. Further, the “S1 positive response” value in experiment [4] was “+ (a “+” to indicate whether a particular T2R receptor showed a positive response to a particular API)”.

Take `CC(=O)CC(c1ccccc1)c1c(O)c2ccccc2oc1=O` (stereo not drawn) [Warfarin]: in experiment [1], the “S5 positive response” value was “+ (a “+” to indicate whether a particular T2R receptor showed a positive response to a particular API)”. The “S4 positive response” value in experiment [5] is recorded as “+ (a “+” to indicate whether a particular T2R receptor showed a positive response to a particular API)”. Moreover, in experiment [4], the “S1 positive response” value was “+ (a “+” to indicate whether a particular T2R receptor showed a positive response to a particular API)”.

As for `N=C(NCCCCCCNC(=N)NC(=N)Nc1ccc(Cl)cc1)NC(=N)Nc1ccc(Cl)cc1.O=C(O)[C@H](O)[C@@H](O)[C@H](O)[C@H](O)CO.O=C(O)[C@H](O)[C@@H](O)[C@H](O)[C@H](O)CO` [Chlorhexidine Digluconate], in experiment [1], the “S5 positive response” value was “+ (a “+” to indicate whether a particular T2R receptor showed a positive response to a particular API)”. The “S6 positive response” value in experiment [2] is listed as “+ (a “+” to indicate whether a particular T2R receptor showed a positive response to a particular API)”. In experiment [5], the “S4 positive response” value was “+ (a “+” to indicate whether a particular T2R receptor showed a positive response to a particular API)”. For the same compound, in experiment [4], the “S1 positive response” value is “+ (a “+” to indicate whether a particular T2R receptor showed a positive response to a particular API)”.

Consider `CC[C@H]1OC(=O)[C@H](C)[C@@H](O[C@H]2C[C@@](C)(OC)[C@@H](O)[C@H](C)O2)[C@H](C)[C@@H](O[C@@H]2O[C@H](C)C[C@H](N(C)C)[C@H]2O)[C@](C)(OC)C[C@@H](C)C(=O)[C@H](C)[C@@H](O)[C@]1(C)O` [Clarithromycin], for which the “S5 positive response” value in experiment [1] is on record as “+ (a “+” to indicate whether a particular T2R receptor showed a positive response to a particular API)”. In addition, in experiment [3], the “S3 positive response” value is reported as “+ (a “+” to indicate whether a particular T2R receptor showed a positive response to a particular API)”. Also, in experiment [4], the “S1 positive response” value is on record as “+ (a “+” to indicate whether a particular T2R receptor showed a positive response to a particular API)”.

For `OC(CCCN1CCCCC1)(c1ccccc1)c1ccccc1` [Diphenidol], the “S5 positive response” value in experiment [1] is reported as “+ (a “+” to indicate whether a particular T2R receptor showed a positive response to a particular API)”. Besides, in experiment [2], the “S6 positive response” value is listed as “+ (a “+” to indicate whether a particular T2R receptor showed a positive response to a particular API)”. Besides, in experiment [5], the “S4 positive response” value is “+ (a “+” to indicate whether a particular T2R receptor showed a positive response to a particular API)”. In addition, the “S3 positive response” value in experiment [3] was “+ (a “+” to indicate whether a particular T2R receptor showed a positive response to a particular API)”. Further, the “S1 positive response” value in experiment [4] is “+ (a “+” to indicate whether a particular T2R receptor showed a positive response to a particular API)”.

On to `COc1ccc2c(c1)[C@]13CCCC[C@@H]1[C@H](C2)N(C)CC3` [Dextromethorphan], for which the “S5 positive response” value in experiment [1] is given as “+ (a “+” to indicate whether a particular T2R receptor showed a positive response to a particular API)”. In experiment [2], the “S6 positive response” value was “+ (a “+” to indicate whether a particular T2R receptor showed a positive response to a particular API)”. The “S4 positive response” value in experiment [5] was “+ (a “+” to indicate whether a particular T2R receptor showed a positive response to a particular API)”. Also, in experiment [3], the “S3 positive response” value is listed as “+ (a “+” to indicate whether a particular T2R receptor showed a positive response to a particular API)”. Also, in experiment [4], the “S1 positive response” value is listed as “+ (a “+” to indicate whether a particular T2R receptor showed a positive response to a particular API)”.
